Test results as given in PMC8878463, “Biological Activity and Stability of Aeruginosamides from Cyanobacteria” (Marine Drugs, 2022).
One block for each molecule: values may come before it.

What was measured:
[1] = In vitro S9 stability assay (LC-MS/MS); assay type: in vitro ADME, human; details: for change of concentration in heat-denatured S9 fraction: heat-denatured (deactivated) S9 fraction; for change of concentration in heat-denatured S9 fraction / change of concentration in active S9 fraction: up to 60 min
Procedure: Human S9 liver fraction (catalogue no. HMS9PL, lot no. PL045-A) (protein content 20 mg mL^−1), containing a mixture of microsomal and cytosol enzymes, was used (Thermo Fisher Scientific, Waltham, MA USA) together with the following activating cofactors: NADPH (Alfa Aesar, Wart Hill, MA, USA), UDPGA (Merck KGaA; Darmstadt, Germany) and GSH (Merck, Darmstadt Germany). All cofactors (20 mM) and the analysed AEGs (3 µM) were prepared in 1% DMSO, the reaction was performed in a buffer (200 mM Tris (Merck KGaA, Darmstadt, Germany), 2 mM MgCl2 and 1M NaOH (Avantor Performance Materials Poland S.A., Gliwice, Poland); pH 7.4) 7-etoxycoumarine (7-EC; 3 µM in 20% DMSO) (Merck KGaA, Darmstadt, Germany) was used as a positive control. Tubes with 236 µL of buffer and 24 µL of S9 fraction were prepared in duplicates. Half of the samples was kept on ice, while the other half was deactivated by heating at 80 °C for 10 min and then cooled to room temperature. Cofactors were mixed (1:1:1) and 120 µL of the mixture, together with 20 µL of 7-EC were added to all samples. The aliquots (25 µL) of the samples were withdrawn at 0, 15, 30, 45, and 60 min, and 50 µL of an ice-cold ACN:MeOH (50:50) was added to stop the reaction. The samples were centrifuged (10,000× g, 4 °C, 10 min) and the supernatants were analysed by LC-MS/MS. The test was repeated twice. The elimination half-life was calculated as in Wen and Walle.
LC-MS/MS analyses were performed using an Agilent 1200 (Agilent Technologies, Waldboronn, Germany) chromatographic system coupled with a hybrid triple quadrupole/linear ion trap mass spectrometer (QTRAP5500, Applied Biosystems, Sciex, Concorde, ON, Canada) as a detector. AEGs were separated in a Zorbax Eclipse XDB-C18 column (4.61 mm × 150 mm; 5 µm) (Agilent Technologies, Santa Clara, CA, USA). The composition of the mobile phase was the same as in preparative chromatography. For analysis of the collected chromatographic fractions, the gradient changed from 15% B to 99% B over 20 min (flow rate 0.6 mL min^−1). The Turbo IonSource operated in positive ionisation mode at capillary voltage of 5.5 kV and source temperature of 550 °C. Cone gas pressure and desolvation gas pressure were 60 psi, declustering potential was 80 V, and collision energy was 60 ± 20 eV. Q3-information-dependent analysis (IDA) and enhanced product ion (EPI) modes were used. The IDA threshold was set at 500,000 cps, and the m/z range was 400–1000. The scan rate was 2000 amu s^−1, and the linear ion trap fill time 50 ms. For analysis of AEGs and 7-EC, the chromatographic gradient changed from 15% B to 25% B in 5 min, then to 99% B in the next 5 min (0.6 mL min^−1). MS operated in multiple reaction monitoring mode at collision energy CE 50 V and with the following transitions: 191 → 163, 119, 107 (q), 91 (for 7-EC); 561 → 222, 186, 86 (q) (for AEG A); 626 → 296, 136 (q), 70 (for AEG 625) and 658 → 296, 199 (q), 120 (for AEG 657). To determine the changes in AEGs concentrations, the peak areas of the most intensive ions (q) were measured.

[2] = system: Huh7 cells; test: CellTiter-Glo cell viability assay; assay type: cell-based, human; details: 24 h; for effect on Huh7 cell viability: 10 nM to 100 µM; for mean luciferase expression (relative luminescence), cell viability: normalized to untreated cells
Procedure: (§1) To determine cell viability and ROS level, Huh7 cells were seeded at 10,000 cells per well in white 96-well plates. After overnight incubation, the medium was removed and replaced with 100 μL of RPMI1640 supplemented with increasing concentrations of AEGs ranging from 10 nM to 100 μM (cell viability) or ranging from 1 µM to 100 μM (ROS), with three replicates at each concentration. After incubation for 24 h, cells viability was examined using a Cell Titer-Glo Luminescent Cell Viability Assay (Promega, Madison, WI, USA) and ROS was measured using a ROS-Glo H2O2 Assay (Promega, Madison, WI, USA).

[3] = molecular target: CYP2C9 (Homo sapiens, UniProt P11712); test: Vivid CYP450 screening kit, CYP2C9 Blue; details: for reduction of CYP2C9 activity: 60 µM, 60 min incubation
Sequence of CYP2C9 (P11712 whole entry): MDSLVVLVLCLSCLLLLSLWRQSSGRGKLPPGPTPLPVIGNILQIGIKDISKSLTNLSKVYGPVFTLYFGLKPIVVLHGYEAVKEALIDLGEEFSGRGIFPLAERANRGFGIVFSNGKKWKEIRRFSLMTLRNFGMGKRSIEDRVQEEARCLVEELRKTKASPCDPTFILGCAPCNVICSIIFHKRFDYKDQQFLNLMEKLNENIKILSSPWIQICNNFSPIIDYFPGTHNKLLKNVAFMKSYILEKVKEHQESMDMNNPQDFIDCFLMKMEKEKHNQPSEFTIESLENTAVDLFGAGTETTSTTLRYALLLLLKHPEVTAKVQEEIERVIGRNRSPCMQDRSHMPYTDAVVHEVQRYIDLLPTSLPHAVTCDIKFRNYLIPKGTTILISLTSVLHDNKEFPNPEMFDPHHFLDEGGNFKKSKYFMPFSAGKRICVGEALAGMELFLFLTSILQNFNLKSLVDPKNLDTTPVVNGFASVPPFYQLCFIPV
Procedure: (§2) The following commercially available Vivid® CYP450 Screening Kits were performed according to the instruction supplied by the manufacturer (Thermo Fisher Scientific, Waltham, MA, USA): Vivid® CYP2C9 Blue (cat. no. P2861), Vivid® CYP2D6 Blue (cat. no. P2972) and Vivid® CYP3A4 Blue (cat. no. P2857). […] After adjustment to room temperature, the Vivid substrate was dissolved in anhydrous acetonitrile (10 µM), and the fluorescence standard was dissolved in DMSO (100 µM). The test compounds and inhibitors were diluted with the Vivid® CYP450 reaction buffer. […] In the subsequent steps, 5 µL solutions of test compounds, inhibitors and solvent were added to the wells. Then, 5 µL of Master Pre-Mix (mixture of Reagent, Regeneration System and the Reaction Buffer) was dispensed to each well. After 10 min incubation at room temperature, the reaction was started by the addition of 5 µL of a mixture composed of Vivid® Substrate and NADP^+. Tests were performed in endpoint mode using 384-well plates. […] The test was performed with three replicates at each concentration.

[4] = molecular target: T1, CYP3A4 (Homo sapiens, UniProt P08684); test: Vivid CYP450 screening kit, CYP3A4 Blue; assay type: biochemical; details: for effect on CYP3A4 activity: up to 60 µM
T1 construct: purchased Thermo Fisher Scientific P2857; host or cells: baculovirus expression system (insect cell microsomes)
T1 sequence (P08684 2-503 limits assumed): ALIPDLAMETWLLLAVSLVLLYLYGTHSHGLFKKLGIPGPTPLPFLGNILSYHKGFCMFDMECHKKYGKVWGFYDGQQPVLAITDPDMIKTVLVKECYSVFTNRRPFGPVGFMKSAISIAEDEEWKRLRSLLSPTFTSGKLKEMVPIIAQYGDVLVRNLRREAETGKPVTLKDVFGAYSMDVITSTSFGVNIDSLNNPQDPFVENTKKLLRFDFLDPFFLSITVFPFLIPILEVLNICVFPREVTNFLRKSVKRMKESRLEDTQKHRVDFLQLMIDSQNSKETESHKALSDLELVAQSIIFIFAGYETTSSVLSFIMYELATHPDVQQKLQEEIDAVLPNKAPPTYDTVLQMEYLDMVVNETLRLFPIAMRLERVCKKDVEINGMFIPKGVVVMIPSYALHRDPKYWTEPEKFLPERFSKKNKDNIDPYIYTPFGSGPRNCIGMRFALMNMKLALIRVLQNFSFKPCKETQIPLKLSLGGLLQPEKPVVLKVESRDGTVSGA
Procedure: The following commercially available Vivid® CYP450 Screening Kits were performed according to the instruction supplied by the manufacturer (Thermo Fisher Scientific, Waltham, MA, USA): Vivid® CYP2C9 Blue (cat. no. P2861), Vivid® CYP2D6 Blue (cat. no. P2972) and Vivid® CYP3A4 Blue (cat. no. P2857). The CYP450 BACULOSOMES Plus Reagent (with the recombinant human cytochrome P450 and human cytochrome 450 reductases), Vivid Regeneration System (333 mM glucose-6-phosphate and 30 U mL^−1 glucose-6-phosphate dehydrogenase in 100 mM K3PO4, pH 8.0), and Vivid NADP^+ (10 mM NADP^+ in 100 mM K3PO4, pH 8.0) were thawed at room temperature and kept on ice until use. After adjustment to room temperature, the Vivid substrate was dissolved in anhydrous acetonitrile (10 µM), and the fluorescence standard was dissolved in DMSO (100 µM). The test compounds and inhibitors were diluted with the Vivid® CYP450 reaction buffer. […] In the subsequent steps, 5 µL solutions of test compounds, inhibitors and solvent were added to the wells. Then, 5 µL of Master Pre-Mix (mixture of Reagent, Regeneration System and the Reaction Buffer) was dispensed to each well. After 10 min incubation at room temperature, the reaction was started by the addition of 5 µL of a mixture composed of Vivid® Substrate and NADP^+. Tests were performed in endpoint mode using 384-well plates. Excitation wavelength was 415 nm and emission was measured at 460 nm, at the start of the test and after 60 min. The test was performed with three replicates at each concentration.

[5] = system: MIR92b-3p in Huh7-pmirGLO-92b cells; test: Dual-luciferase reporter assay for inhibitors of MIR92b-3p function; assay type: cell-based, human; details: 100 µM, 24 h
Procedure: In this study, the reporter assays for small-molecule inhibitors of the MIR92b-3p function, previously designed to screen Nostoc peptides, were used. The screen employs a Huh7 human hepatoma cell line (Cell Lines Service GmbH, CLS; Eppelheim, Germany) stably transfected with a pmirGLO vector containing dual-luciferase reporters. Briefly, for the chemical screening of AEGs, Huh7-pmirGLO-MIR92b-3p cells were seeded at 10,000 cells per well in white, 96-well plates (Thermo Fisher Scientific, Waltham, MA, USA). After overnight incubation, the medium was removed and replaced with 100 μL of RPMI1640 (Merck, KGaA, Darmstadt, Germany), supplemented with increasing concentrations of AEGs, ranging from 10 nM to 100 μM, with three replicates at each concentration. Cells were incubated for 24 h and then analysed with a dual-luciferase Reporter Assay Kit (Promega, Madison, WI, USA). Relative luciferase activity was calculated using the ratio of firefly (F) and Renilla (R) luciferase activity (F/R).

[6] = system: ROS (reactive oxygen species) levels in Huh7 cells; test: ROS-Glo H2O2 assay; assay type: cell-based, human; details: 1 µM to 100 µM, 24 h, concentration-dependent
Procedure: as §1

[7] = system: human breast adenocarcinoma cell line T47D; test: MTT cytotoxicity assay; assay type: cell-based; details: 40 µM, 24 h
Procedure: MTT (3-(4,5-dimethylthiazol-2-yl)-2,5-diphenyltetrazolium-bromide) assay was performed according to Felczykowska et al.. Briefly, cytotoxicity assessment was conducted against human breast adenocarcinoma cell line T47D obtained from the European Collection of Authenticated Cell Cultures (ECACC) through Merck KGaA (Darmstadt, Germany). Cells were cultured in 96-well plates using RPMI1640 medium (Carl Roth GmbH, Karlsruhe, Germany) supplemented with a fetal bovine serum (10% v/v; Sigma-Aldrich by Merck KGaA, Darmstadt, Germany) and penicillin-streptomycin solution (1% v/v, stock solution 50 u and 0.05 mg mL^−1, respectively; Merck KGaA, Darmstadt, Germany) at 1 × 10^4 cells per well and incubated for 24 h. After the addition of the tested compounds (40, 80, 160 and 320 µM) dissolved in 1% DMSO, samples were incubated for another 24 h. Then, MTT reagent was added (25 µL at 4 mg mL^−1 in PBS; Merck KGaA; Darmstadt, Germany) and the samples were incubated for 4 h. Lastly, formazan crystals were dissolved in 100% DMSO and absorbance was measured using a microplate reader (Spectramax i3, Molecular Devices, LLC San Jose, CA, USA). Cell viability was calculated as the ratio of the mean absorbance value measured in two independent assays, for the three replicates containing the samples, to the mean absorbance of the three replicates of the corresponding solvent control and expressed as a percentage.

[8] = molecular target: CYP2D6 (Homo sapiens, UniProt P10635); test: Vivid CYP450 screening kit, CYP2D6 Blue
Sequence of CYP2D6 (P10635 whole entry): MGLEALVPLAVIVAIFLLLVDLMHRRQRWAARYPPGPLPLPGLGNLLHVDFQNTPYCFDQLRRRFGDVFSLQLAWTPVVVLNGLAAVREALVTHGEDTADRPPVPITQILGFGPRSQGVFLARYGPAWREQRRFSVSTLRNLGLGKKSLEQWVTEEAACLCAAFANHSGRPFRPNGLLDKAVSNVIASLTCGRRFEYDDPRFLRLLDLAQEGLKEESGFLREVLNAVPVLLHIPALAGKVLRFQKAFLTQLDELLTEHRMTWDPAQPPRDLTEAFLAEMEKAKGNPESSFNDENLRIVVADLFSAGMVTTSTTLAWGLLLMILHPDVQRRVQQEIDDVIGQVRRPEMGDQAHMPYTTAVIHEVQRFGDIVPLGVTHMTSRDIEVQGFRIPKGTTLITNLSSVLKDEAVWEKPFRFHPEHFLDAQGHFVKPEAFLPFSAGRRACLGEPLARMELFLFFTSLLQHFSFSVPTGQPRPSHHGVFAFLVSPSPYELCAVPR
Procedure: as §2

[9] = system: A2780 human ovarian tumour cells; set-up: method as in PMID 34237867; details: previous study; read-out: IC50 cytotoxic activity, A2780; cited from earlier work
[10] = system: K562 human leukaemia cells; set-up: method as in PMID 34237867; details: previous study; read-out: IC50 cytotoxic activity, K562; cited from earlier work
[11] = active S9 fraction, 60 min, 3 µM
[12] = human, recombinant CYP2D6 (CYP450 BACULOSOMES Plus Reagent), probe Vivid CYP2D6 Blue substrate

Structure (SMILES): CCOc1ccc2ccc(=O)oc2c1 [7-EC, 7-etoxycoumarin, reference compound]
- elimination half-life t1/2 ([1]; active S9 fraction with NADPH, UDPGA, GSH): 38.7 min
- concentration remaining, % of initial value [1, 11]: 28.6%
- change of concentration in heat-denatured S9 fraction [1]: no changes were observed

Structure (SMILES): CCC(C)C(C(=O)NC(C(=O)N1CCCC1c1nc(C(=O)O)cs1)C(C)C)N(CC=C(C)C)CC=C(C)C (stereo not drawn) [AEG A]
- effect on Huh7 cell viability [2]: did not affect either of the two cancer cell lines
- IC50 [9]: 2.9 µM
- reduction of CYP2C9 activity [3]: 28.7%
- IC50 ([4]; 60 min incubation): 5.7 µM
- effect on CYP3A4 activity [4]: active against CYP3A4, but only at the two highest concentrations
- IC50 [10]: 5.2 µM
- inhibition of T47D viability [7]: no effects were observed
- remaining CYP2D6 activity (reduced to) ([8]; 6 µM): 78.4%
- remaining CYP2D6 activity (reduced to) ([8]; 60 µM): 60.4%
- IC50 at 60 min [8, 12]: 8.6 µM
- concentration remaining, % of initial value ([1]; active S9 fraction, 15 min, 3 µM): 2.9%
- concentration remaining, % of initial value [1, 11]: 0.4%
- concentration remaining, % of initial value ([1]; heat-denatured S9 fraction, 15 min): 56.0%
- concentration remaining, % of initial value ([1]; heat-denatured S9 fraction, 60 min): 46.0%
- half-life at 3 µM ([1]; human, liver S9 fraction (active), pH 7.4, active S9 fraction with NADPH, UDPGA, GSH, read-out: elimination half-life t1/2): 2.48 min

Structure (SMILES): C=C[C@H]1C[N@@]2CC[C@H]1C[C@@H]2[C@@H](O)c1ccnc2ccc(OC)cc12 [Quinidine, reference compound]
- inhibition at 60 min, 60 µM ([8]; human): 96.2%

Structure (SMILES): Nc1ccc(S(=O)(=O)Nc2ccnn2-c2ccccc2)cc1 [sulfaphenazole, reference compound]
- reduction of CYP2C9 activity [3]: 44.9%
- IC50 at 60 min ([3]; human): 6.1 µM

More lines, main results first:

- reduction of CYP2C9 activity [3]: 43.9%
- effect on CYP3A4 activity [4]: No significant loss of CYP3A4 activity
- effect on CYP2D6 activity ([8]; up to 60 µM): did not induce any effects
Structure (SMILES): C=CC(C)(C)NC(Cc1ccc(O)cc1)C(=O)NC(C(=O)N1CCCC1C(=O)N1CCCC1c1nc(C(=O)O)cs1)C(C)C (stereo not drawn) [AEG625]
- effect on Huh7 cell viability [2]: no apparent effect
- mean luciferase expression (relative luminescence), cell viability ([2]; 50 µM): 0.73 (SD = 0.47)
- mean luciferase expression (relative luminescence), cell viability ([2]; 100 µM): 0.70 (SD = 0.27)
- luciferase signal intensity (MIR92b-3p reporter) [5]: slight increase in signal intensity
- change of ROS levels in Huh7 cells [6]: twofold
- inhibition of T47D viability [7]: 48%
- change of concentration in active S9 fraction ([1]; active S9 fraction): neither changes in the active nor in the deactivated fraction were detected
- change of concentration in heat-denatured S9 fraction [1]: neither changes in the active nor in the deactivated fraction were detected

- reduction of CYP2C9 activity [3]: 40.7%
- CYP3A4 activity lower than in the control ([4]; 60 µM): approx. 18%
- inhibition at 60 min, 60 µM [8, 12]: 33.2%
Structure (SMILES): C=CC(C)(C)NC(Cc1ccccc1)C(=O)NC(Cc1ccccc1)C(=O)N1CCCC1C(=O)N1CCCC1c1nc(C(=O)O)cs1 (stereo not drawn) [AEG657]
- effect on Huh7 cell viability [2]: lack of significant effects
- inhibition of T47D viability [7]: 63%
- change of concentration in active S9 fraction ([1]; active S9 fraction): neither changes in the active nor in the deactivated fraction were detected
- change of concentration in heat-denatured S9 fraction [1]: neither changes in the active nor in the deactivated fraction were detected
